Reference: US10689365B2, “Substituted 2-alkylimidazolylcarboxamides as pesticides” (Bayer CropScience Aktiengesellschaft, priority 2016, dated 2020)
Where two headings read alike, the source gives them in different places.

Experiments:
Myzus persicae [1] = test: Myzus persicae - spray test (Chinese cabbage leaf discs); format: in vivo; settings: Myzus persicae, foliar; application rate 500 g/ha, after 5-6 days; read-out: efficacy
Summary of the method: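 Chinese cabbage leaf discs carrying all aphid stages were sprayed with compound dissolved in acetone/dimethylformamide and diluted in water with 1000 ppm alkylaryl polyglycol ether emulsifier. Efficacy was recorded after 5-6 days as % aphids killed (100% = all, 0% = none).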

Myzus persicae [2] = test: Myzus persicae - oral test; format: in vivo; settings: Myzus persicae, po, 120 h; application rate 20 ppm, after 5 days; read-out: efficacy
Summary of the method: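 Aphid feeding test: compound dissolved in acetone, diluted with water and mixed with IPL41 insect medium plus sugar, offered through parafilm to a mixed population of green peach aphids. Mortality scored after 5 days as % efficacy (100% = all aphids dead, 0% = none dead).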

Myzus persicae [3] = test: Myzus persicae - spray test (MYZUPE), Chinese cabbage leaf discs; format: in vivo; settings: foliar, 120 h, 5 dat; for percent efficacy (aphid mortality) at 100 g/ha: 100 g of ai/ha
Method: Myzus persicae—Spray Test (MYZUPE)
Solvent: 78.0 parts by weight of acetone • • 1.5 parts by weight of dimethylformamide
(§1) Emulsifier: alkylaryl polyglycol ether
(§2) To produce a suitable active compound preparation, 1 part by weight of active compound is dissolved using the stated parts by weight of solvent and made up with water containing an emulsifier concentration of 1000 ppm until the desired concentration is attained. To produce further test concentrations, the formulation is diluted with emulsifier-containing water.
Discs of Chinese cabbage leaves (Brassica pekinensis) infested by all stages of the green peach aphid (Myzus persicae) are sprayed with an active compound preparation of the desired concentration.
(§3) After the desired period of time, the efficacy in % is determined. 100% means that all the aphids have been killed; 0% means that no aphids have been killed.

Myzus persicae [4] = test: Myzus persicae - oral test (MYZUPE O); format: in vivo; settings: 120 h, 5 dat, read-out: % efficacy
Method: Myzus persicae—Oral Test (MYZUPE O)
Solvent: 100 parts by weight of acetone
To produce a suitable preparation of active compound, 1 part by weight of active compound is dissolved using the specified parts by weight of solvent and made up with water until the desired concentration is attained.
50 μl of the active compound preparation are transferred into microtitre plates and made up to a final volume of 200 μl with 150 μl of IPL41 insect medium (33%+15% sugar). Subsequently, the plates are sealed with parafilm, which a mixed population of green peach aphids (Myzus persicae) within a second microtitre plate is able to puncture and imbibe the solution through it.
as §3

Myzus persicae [5] = test: Myzus persicae - spray test (MYZUPE S), bell pepper plants; format: in vivo; settings: 144 h, 6 dat, read-out: % efficacy
Method: Myzus persicae—Spray Test (MYZUPE S)
(§4) Solvent: 14 parts by weight of dimethylformamide
as §1
as §2, with “with” for “using”, “specified” for “stated”, “water. If the addition of ammonium salts or/and penetrants is required, these are each added in a concentration of 1000 ppm to the formulation solution.” for “water.”
Bell pepper plants (Capsicum annuum) severely infested with the green peach aphid (Myzus persicae) are treated by spraying with the active ingredient formulation in the desired concentration.
After the desired time, the kill in % is determined. 100% means that all the animals have been killed; 0% means that no animals have been killed.

Myzus persicae [6] = test: Myzus persicae - drench test (MYZUPE D), Savoy cabbage in soil; format: in vivo; settings: 240 h, 10 dat, read-out: % efficacy
Method: Myzus persicae—Drench Test (MYZUPE D)
To produce a suitable active compound preparation, 1 part by weight of active compound is mixed with the specified amounts of solvent and emulsifier, and the concentrate is diluted with water to the desired concentration, it being necessary to include the volume of soil which is drenched in the calculation. It should be ensured that a concentration of 40 ppm of emulsifier in the soil is not exceeded. To produce further test concentrations, water is used for dilution.
Savoy cabbage (Brassica oleracea) in pots with soil and infested by all stages of the green peach aphid (Myzus persicae) is watered with an active compound preparation of the desired concentration.
as §3

Aphis gossypii = Aphis gossypii - spray test (APHIGO S), cotton plants; format: in vivo; settings: 144 h, 6 dat, read-out: % efficacy
Method: Aphis gossypii—Spray Test (APHIGO S)
as §4, §1
as §2, with “water. If the addition of ammonium salts or/and penetrants is required, these are each added in a concentration of 1000 ppm to the formulation solution.” for “water.”
Cotton plants (Gossypium hirsutum) heavily infested by the cotton aphid (Aphis gossypii) are sprayed with an active ingredient formulation of the desired concentration.
After the desired time, the kill in % is determined. 100% means that all the aphids have been killed; 0% means that no aphids have been killed.

[7] = log P by HPLC on reversed-phase (C18) columns, OECD Guideline 117; format: physicochemical; settings: reversed-phase (C18) HPLC column
Summary of the method: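 Reversed-phase C18 HPLC per OECD 117, LC-MS with a linear 10% to 95% acetonitrile gradient. Acidic method at pH 2.7 with 0.1% formic acid; neutral method at pH 7.8 with 0.001 M ammonium hydrogencarbonate.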

[8] = acidic range, pH 2.7, 0.1% aqueous formic acid/acetonitrile, read-out: logP[a]
[9] = neutral range, pH 7.8, aqueous ammonium hydrogencarbonate/acetonitrile, read-out: logP[n]

chromatographic logP [7, 8]	chromatographic logP [7, 9]	SMILES	pest or weed control at 500 g/ha (Myzus persicae [1]) [%]	pest or weed control at 20 ppm (Myzus persicae [2]) [%]	percent efficacy (aphid mortality) at 20 g/ha (Myzus persicae [3]; 20 g of ai/ha) [%]	percent efficacy (aphid mortality) at 100 g/ha (Myzus persicae [3]) [%]	Emax at 4 ppm (Myzus persicae [4]) [%]	Emax at 0.16 ppm (Myzus persicae [5]) [%]	Emax at 0.16 ppm (Myzus persicae [6]) [%]	Emax at 0.8 ppm (Aphis gossypii; 0.8 ppm) [%]	Emax at 4 ppm (Aphis gossypii; 4 ppm) [%]	Emax at 20 g/ha (Myzus persicae [3]; 20 g of ai/ha, read-out: % efficacy) [%]	percent kill (mortality) of aphids at a fixed dose at 4 ppm (Aphis gossypii; 4 ppm) [%]	percent kill (mortality) of aphids at a fixed dose at 0.8 ppm (Aphis gossypii; 0.8 ppm) [%]
1.32	2.05	CCN(C(=O)c1cnc(CSCC(C)C)n1C)c1cccnc1 [Example I-1-51]	100	100	90	90	100	99	98	99	99	–	–	–
1.29	1.93	CCN(C(=O)c1cnc(CSC(C)(C)C)n1C)c1cccnc1 [Example I-1-52]	90	100	–	90	100	99	95	–	–	70	90	–
1.19	1.82	CCN(C(=O)c1cnc(CSCC2CC2)n1C)c1cccnc1 [Example I-1-53]	100	100	100	100	100	99	90	–	97	–	–	98
1.68	2.34	CCN(C(=O)c1cnc(CSCC(C)(C)C)n1C)c1cccnc1 [Example I-1-54]	90	100	90	90	100	99	90	–	95	–	–	90
